In patent publication US5589496A, “Fused benzeneoxyacetic acid derivatives which have PGI2 receptor agonist activity” (Ono Pharmaceutical Co., Ltd., priority 1991, dated 1996):

What was measured:
PGI2 receptor = target: T1, PGI2 receptor (Homo sapiens, UniProt P43119); assay: Inhibitory activity on binding of ^3 H-iloprost to PGI2 receptor on human blood platelet membrane fraction; conditions: 10 nM [^3H]-iloprost, human blood platelet membrane fraction (0.3 mg protein), 24° C., 30 min, pH 7.4
T1 construct: human blood platelet membrane fraction (0.3 mg protein) was added; from tissue; host or cells: human blood platelets (membrane fraction)
T1 sequence (P43119 whole entry): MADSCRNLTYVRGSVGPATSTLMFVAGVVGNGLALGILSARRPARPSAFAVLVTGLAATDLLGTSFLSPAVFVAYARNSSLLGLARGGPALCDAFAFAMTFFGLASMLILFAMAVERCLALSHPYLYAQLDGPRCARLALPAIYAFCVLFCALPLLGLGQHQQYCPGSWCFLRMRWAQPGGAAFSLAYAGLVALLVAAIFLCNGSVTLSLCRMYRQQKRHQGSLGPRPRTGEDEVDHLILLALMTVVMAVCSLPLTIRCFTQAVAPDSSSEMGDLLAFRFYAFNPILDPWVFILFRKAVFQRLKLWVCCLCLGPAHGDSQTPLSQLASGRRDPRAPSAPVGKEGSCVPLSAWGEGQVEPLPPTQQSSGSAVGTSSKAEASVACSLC
Method: i) Inhibitory activity on binding of ^3 H-iloprost to PGI2 receptor on human blood platelet membrane fraction Method 50 mM Tris-HCl buffer (pH 7.4) containing 15 mM MgCl2, 5 mM EDTA and 10 nM [^3 H]-iloprost were used as reaction medium. To 0.2 ml of the reaction medium, human blood platelet membrane fraction (0.3 mg protein) was added with or without a test compound. The mixture was incubated at 24° C. for 30 min. After incubation, 4 ml of ice-cold 10 mM Tris-HCl buffer (pH 7.4) was added to the reaction mixture, and filtered through Whatman GF/B glass fiber filter, and washed 4 times with 4 ml of ice-cold 10 mM Tris-HCl buffer (pH 7.4) to separate bound and free [^3 H]-iloprost. After washing, the filter was dried and radioactivity was counted. Non-specific binding was obtained by performing parallel binding experiments in the presence of 10 μM non-labelled iloprost. Specific binding was calculated by subtracting the non-specific binding from the total binding. The inhibitory effect of test compound was calculated from the following equation. The percentage of inhibition (%)=100-(B1 /B0 ×100) B1 : specific [^3 H]-iloprost binding in presence of test compound B0 : specific [^3 H]-iloprost binding in absence of test compound

[1] = tested on: human blood platelet aggregation; assay: Inhibitory effect on human blood platelet aggregation (ADP-induced, platelet-rich plasma); type: cell-based; conditions: human PRP (5×10^5 platelets/mm^3), test compound 1 min prior to ADP (4 μm)
Method: ii) Inhibitory effect on human blood platelet aggregation
Platelet-rich plasma (PRP) was prepared from human blood (5×10^5 platelets/mm^3), and a test compound was added to PRP 1 min prior to the addition of ADP (4 μm). The aggregation was monitored using a platelet aggregometer (NBS HEMA TRACER 601, Niko Bioscience, Japan).

Compound | IC50 (PGI2 receptor) [nM] | IC50 [1] [nM]
O=C(O)COc1cccc2c1CCC(Cn1cnc(-c3ccccc3)c1-c1ccccc1)C2 (centres unmarked) [2(a), [2-(4,5-Diphenylimidazol-1-yl)methyl-1,2,3,4-tetrahydronaphthalen-5-yloxy]acetic acid] | 2300 | 13000
O=C(O)COc1cccc2c1CCC(CSc1nc(-c3ccccc3)c(-c3ccccc3)[nH]1)C2 (centres unmarked) [2(c), [2-(4,5-Diphenylimidazol-2-ylthio)methyl-1,2,3,4-tetrahydronaphthalen-5-yloxy] acetic acid] | 3900 | 12000
O=C(O)COc1cccc2c1CCC(COc1nc(-c3ccccc3)c(-c3ccccc3)n1-c1ccccc1)C2 (centres unmarked) [2(d), [2-(1,4,5-Triphenylimidazol-2-yloxy)methyl-1,2,3,4-tetrahydronaphthalen-5-yloxy] acetic acid] | 6800 | 20000
O=C(O)COc1cccc2c1CCC(Cn1c(-c3ccccc3)c(-c3ccccc3)n(-c3ccccc3)c1=O)C2 (centres unmarked) [2(e), [2-(3,4,5-Triphenyl-2-oxo-2,3-dihydroimidazol-1-yl)methyl-1,2,3,4-tetrahydronaphthalen-5-yloxy] acetic acid] | 2600 | 15000
O=C(O)COc1cccc2c1CCC(Cn1cnc(C(c3ccccc3)c3ccccc3)c1)C2 (centres unmarked) [2(g), [2-(4-Diphenylmethylimidazol-1-yl)methyl-1,2,3,4-tetrahydronaphthalen-5-yloxy] acetic acid] | 350 | 300
O=C(O)COc1cccc2c1CCC(Cn1ccc(C(c3ccccc3)c3ccccc3)n1)C2 (centres unmarked) [2(h), [2-(3-Diphenylmethylpyrazol-1-yl)methyl-1,2,3,4-tetrahydronaphthalen-5-yloxy] acetic acid] | 360 | 
O=C(O)COc1cccc2c1CCC(Cn1cc(C(c3ccccc3)c3cccnc3)cn1)C2 (centres unmarked) [2(i), [2-(4-((3-pyridyl)phenylmethyl)pyrazol-1-yl)methyl-1,2,3,4-tetrahydronaphthalen-5-yloxy] acetic acid] | 210 | 150
O=C(O)COc1cccc2c1CCC(CCSc1nc(-c3ccccc3)c(-c3ccccc3)[nH]1)C2 (centres unmarked) [4(b), [2-(2-(4,5-Diphenylimidazol-2-ylthio)ethyl)-1,2,3,4-tetrahydronaphthalen-5-yloxy] acetic acid] | 5000 | 11000
O=C(O)COc1cccc2c1CCC(CCOc1nc(-c3ccccc3)c(-c3ccccc3)n1-c1ccccc1)C2 (centres unmarked) [4(c), [2-(2-(1,4,5-Triphenylimidazol-2-yloxy)ethyl)-1,2,3,4-tetrahydronaphthalen-5-yloxy] acetic acid] | 8200 | 
O=C(O)COc1cccc2c1CCC(CCn1cc(C(c3ccccc3)c3ccccc3)cn1)C2 (centres unmarked) [4(f), [2-(2-(4-Diphenylmethylpyrazol-1-yl)ethyl)-1,2,3,4-tetrahydronaphthalen-5-yloxy] acetic acid] | 1400 | 
O=C(O)COc1cccc2c1CCCC2CCn1c(-c2ccccc2)c(-c2ccccc2)n(-c2ccccc2)c1=O (centres unmarked) [6(b), [1-(2-(1,4,5-Triphenyl-2-oxo-2,3-dihydroimidazol-3-yl)ethyl)-1,2,3,4-tetrahydronaphthalen-5-yloxy] acetic acid] | 4000 | 16000
O=C(O)COc1cccc2c1CCCC2CCn1cc(C(c2ccccc2)c2ccccc2)cn1 (centres unmarked) [6(c), [1-(2-(4-Diphenylmethylpyrazol-1-yl)ethyl)-1,2,3,4-tetrahydronaphthalen-5-yloxy] acetic acid] | 58 | 
O=C(O)COc1cccc2c1CCC(Cc1nc(C(c3ccccc3)c3ccccc3)no1)C2 (centres unmarked) [8(a), [2-(3-Diphenylmethyl-1,2,4-oxadiazol-5-yl)methyl-1,2,3,4-tetrahydronaphthalen-5-yloxy] acetic acid] | 260 | 1000
O=C(O)COc1cccc2c1CCC(Cn1cc(C(c3ccccc3)c3cccnc3)cn1)=C2 (centres unmarked) [22(a), [2-(4-((3-Pyridyl)phenylmethyl)pyrazol-1-yl)methyl-3,4-dihydronaphthalen-5-yloxy] acetic acid] | 160 | 
O=C(O)COc1cccc2c1CCC(Cn1cc(C(c3ccccc3)c3ccccc3)cn1)C2 (centres unmarked) [Example 2, [2-(4-Diphenylmethylpyrazol-1-yl)methyl-1,2,3,4-tetrahydronaphthalen-5-yloxy]acetic acid] | 43 | 45
O=C(O)COc1cccc2c1CCCC2CCn1cnc(-c2ccccc2)c1-c1ccccc1 (centres unmarked) [Example 6, [1-[2-(4,5-Diphenylimidazol-1-yl)ethyl]-1,2,3,4-tetrahydronaphthalen-5-yloxy] acetic acid] | 5000 | 
O=C(O)COc1cccc2c1CCCC2CCc1nc(C(c2ccccc2)c2ccccc2)no1 (centres unmarked) [Example 8, [1-[2-(3-Diphenylmethyl-1,2,4-oxadiazol-5-yl)ethyl]-1,2,3,4-tetrahydronaphthalen-5-yloxy] acetic acid] | 2000 | 
O=C(O)COc1cccc2c1CCC(Cc1nc(C(c3ccccc3)c3ccccc3)co1)C2 (centres unmarked) [Example 10, [2-(4-Diphenylmethyloxazol-2-yl)methyl-1,2,3,4-tetrahydronaphthalen-5-yloxy] acetic acid] | 1800 | 5100
O=C(O)COc1cccc2c1CCC(Cc1coc(C(c3ccccc3)c3ccccc3)n1)C2 (centres unmarked) [Example 12, [2-(2-Diphenylmethyloxazol-4-yl)methyl-1,2,3,4-tetrahydronaphthalen-5-yloxy] acetic acid] | 320 | 1000
CCc1oc(C(c2ccccc2)c2ccccc2)nc1CC1CCc2c(cccc2OCC(=O)O)C1 (centres unmarked) [Example 14, [2-(2-Diphenylmethyl-5-ethyloxazol-4-yl)methyl-1,2,3,4-tetrahydronaphthalen-5-yloxy] acetic acid] | 940 | 1600
O=C(O)COc1cccc2c1CCC(Cc1c[nH]c(C(c3ccccc3)c3ccccc3)n1)C2 (centres unmarked) [Example 16, [2-(2-Diphenylmethylimidazol-4-yl)methyl-1,2,3,4-tetrahydronaphthalen-5-yloxy] acetic acid] | 6800 | 12000
O=C(O)COc1cccc2c1CCC(Cn1cc(C(c3ccccc3)c3ccccc3)cn1)=C2 [Example 22, [2-(4-(Diphenylmethyl)pyrazol-1-yl)methyl-3,4-dihydronaphthalen-5-yloxy] acetic acid] | 18 | 93
O=C(O)COc1cccc2c1CCC(Cn1cc(C(c3ccccc3)n3ccnc3)cn1)C2 (centres unmarked) [Example 24, [2-(4-((1-Imidazolyl)phenylmethyl)pyrazol-1-yl)methyl-1,2,3,4-tetrahydronaphthalen-5-yloxy] acetic acid] | 8000 | 
